Assay results reported in patent US12448399B2, “Cereblon-based KRAS degrading PROTACs and uses related thereto” (Arvinas Operations, Inc., priority 2023, dated 2025).
Blank lines part the entries; values can stand above or below the compound they belong to.

Biological target: T1, KRas-G12D (Homo sapiens, UniProt P01116, G12D)
T1 construct: insert the HiBiT tag onto the N-terminus of one or more of the endogenous KRas alleles; host or cells: AsPC-1 HiBiT-KRasG12D knock-in clone (one tagged allele, two untagged KRasG12D alleles)
T1 sequence (P01116 1-188 isoform P01116-2 G12D): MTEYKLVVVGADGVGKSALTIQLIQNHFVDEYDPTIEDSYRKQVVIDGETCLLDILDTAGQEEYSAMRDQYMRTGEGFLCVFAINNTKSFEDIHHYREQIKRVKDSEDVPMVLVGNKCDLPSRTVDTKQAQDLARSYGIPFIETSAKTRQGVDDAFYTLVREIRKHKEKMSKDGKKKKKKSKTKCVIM
Experiment: HiBiT Degradation Assay (G12D), AsPC-1 HiBiT-KRasG12D cells, 24 hr
Assay type: cell-based
Conditions: for Dmax: ASPC1, AsPC-1 cells, maximum degradation observed; for DC50: AsPC-1 cells
How it was run: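 Degradation was read after 24 hr compound exposure (0.5% DMSO, 37° C) by Nano-Glo HiBiT lytic luminescence in AsPC-1 cells carrying a HiBiT tag on one of three KRasG12D alleles. Signal relative to DMSO gave DC50 and Dmax by 4-parameter fit; alamar blue fluorescence monitored cytotoxicity.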

SMILES: C#Cc1c(F)ccc2cc(O)cc(-c3ncc4c(N5CC6CCC(C5)N6)nc(OCCN5CCC(CN6CCN(CC7CCN(c8ccc9c(c8F)n(C(C)C)c(=O)n9C8CCC(=O)NC8=O)CC7)CC6)CC5)nc4c3F)c12 (stereo not shown) [Compound 159, 3-{5-[4-({4-[(1-{2-[(4-{3,8-diazabicyclo[3.2.1]octan-3-yl}-7-(8-ethynyl-7-fluoro-3-hydroxynaphthalen-1-yl)-8-fluoropyrido[4,3-d]pyrimidin-2-yl)oxy]ethyl}piperidin-4-yl)methyl]piperazin-1-yl}methyl)piperidin-1-yl]-4-fluoro-2-oxo-3-(propan-2-yl)-2,3-dihydro-1H-1,3-benzodiazol-1-yl}piperidine-2,6-dione]
Dmax: > 70% | DC50: < 5.1 µM

SMILES: C#Cc1c(F)ccc2cc(O)cc(-c3ncc4c(N5CC6CCC(C5)N6)nc(OCCN5CCC(CC6CCN(CC7CCN(c8cccc9c8n(C(C)C)c(=O)n9C8CCC(=O)NC8=O)CC7)CC6)CC5)nc4c3F)c12 (stereo not shown) [Compound 94, 3-{4-[4-({4-[(1-{2-[(4-{3,8-diazabicyclo[3.2.1]octan-3-yl}-7-(8-ethynyl-7-fluoro-3-hydroxynaphthalen-1-yl)-8-fluoropyrido[4,3-d]pyrimidin-2-yl)oxy]ethyl}piperidin-4-yl)methyl]piperidin-1-yl}methyl)piperidin-1-yl]-2-oxo-3-(propan-2-yl)-2,3-dihydro-1H-1,3-benzodiazol-1-yl}piperidine-2,6-dione]
Dmax: > 70% | DC50: < 5.1 µM

SMILES: C#Cc1c(F)ccc2cc(O)cc(-c3ncc4c(N5CC6CCC(C5)N6)nc(OCCN5CCC(CN6CC7(CCN(c8cc(C)c9c(c8F)CN(C8CCC(=O)NC8=O)C9=O)CC7)C6)CC5)nc4c3F)c12 (stereo not shown) [Compound 154, 3-(5-{2-[(1-{2-[(4-{3,8-diazabicyclo[3.2.1]octan-3-yl}-7-(8-ethynyl-7-fluoro-3-hydroxynaphthalen-1-yl)-8-fluoropyrido[4,3-d]pyrimidin-2-yl)oxy]ethyl}piperidin-4-yl)methyl]-2,7-diazaspiro[3.5]nonan-7-yl}-4-fluoro-7-methyl-1-oxo-2,3-dihydro-1H-isoindol-2-yl)piperidine-2,6-dione]
Dmax: > 70% | DC50: < 5.1 µM

SMILES: CCc1c(F)ccc2cc(O)cc(-c3ncc4c(N5CC6CCC(C5)N6)nc(OC[C@@H]5C[C@@H](OC6CCN(CC7CCN(c8ccc9c(c8)n(C)c(=O)n9C8CCC(=O)NC8=O)CC7)CC6)CN5C)nc4c3F)c12 (stereo partly drawn) [Compound 207, 3-(5-{4-[(4-{[(3R,5S)-5-{[(4-{3,8-diazabicyclo[3.2.1]octan-3-yl}-7-(8-ethyl-7-fluoro-3-hydroxynaphthalen-1-yl)-8-fluoropyrido[4,3-d]pyrimidin-2-yl)oxy]methyl}-1-methylpyrrolidin-3-yl]oxy}piperidin-1-yl)methyl]piperidin-1-yl}-3-methyl-2-oxo-2,3-dihydro-1H-1,3-benzodiazol-1-yl)piperidine-2,6-dione]
Dmax: > 70% | DC50: < 5.1 µM

SMILES: C#Cc1c(F)ccc2cc(O)cc(-c3ncc4c(N5CC6CCC(C5)N6)nc(OC[C@@H]5C[C@@H](OC6CCN(CC7CCN(c8ccc9c(c8)CN(C8CCC(=O)NC8=O)C9=O)CC7)CC6)CN5CC)nc4c3F)c12 (stereo partly drawn) [Compound 165, 3-(5-{4-[(4-{[(3R,5S)-5-{[(4-{3,8-diazabicyclo[3.2.1]octan-3-yl}-7-(8-ethynyl-7-fluoro-3-hydroxynaphthalen-1-yl)-8-fluoropyrido[4,3-d]pyrimidin-2-yl)oxy]methyl}-1-ethylpyrrolidin-3-yl]oxy}piperidin-1-yl)methyl]piperidin-1-yl}-1-oxo-2,3-dihydro-1H-isoindol-2-yl)piperidine-2,6-dione]
Dmax: > 70% | DC50: < 5.1 µM

SMILES: C#Cc1c(F)ccc2cc(O)cc(-c3ncc4c(N5CC6CCC(C5)N6)nc(OC[C@]56CCCN5[C@H](CN5CCN(CC7CCN(c8ccc9c(c8)n(C)c(=O)n9C8CCC(=O)NC8=O)CC7)CC5)CC6)nc4c3F)c12 (stereo partly drawn) [Compound 204, 3-[5-[4-[[4-[[(3S,8R)-8-[[4-(3,8-diazabicyclo[3.2.1]octan-3-yl)-7-(8-ethynyl-7-fluoro-3-hydroxy-1-naphthyl)-8-fluoro-pyrido[4,3-d]pyrimidin-2-yl]oxymethyl]-1,2,3,5,6,7-hexahydropyrrolizin-3-yl]methyl]piperazin-1-yl]methyl]-1-piperidyl]-3-methyl-2-oxo-benzimidazol-1-yl]piperidine-2,6-dione]
Dmax: > 70% | DC50: < 5.1 µM

SMILES: C#Cc1c(F)ccc2cc(O)cc(-c3ncc4c(N5CC6CCC(C5)N6)nc(OCCN5CCC(CC6CCN(CC7CCN(c8ccc9c(c8Cl)CN(C8CCC(=O)NC8=O)C9=O)CC7)CC6)CC5)nc4c3F)c12 (stereo not shown) [Compound 109, 3-(5-(4-((4-((1-(2-((4-(-3,8-diazabicyclo[3.2.1]octan-3-yl)-7-(8-ethynyl-7-fluoro-3-hydroxynaphthalen-1-yl)-8-fluoropyrido[4,3-d]pyrimidin-2-yl)oxy)ethyl)piperidin-4-yl)methyl)piperidin-1-yl)methyl)piperidin-1-yl)-4-chloro-1-oxoisoindolin-2-yl)piperidine-2,6-dione]
Dmax: > 70% | DC50: < 5.1 µM

DC50: > 1 µM
SMILES: CCc1cccc2cc(O)cc(-c3ncc4c(N5CC6CCC(C5)N6C)nc(OC[C@]56CCCN5[C@@H](COC(=O)N5CCN(c7ccc8c(c7)CN(C7CCC(=O)NC7=O)C8=O)CC5)CC6)nc4c3F)c12 (stereo partly drawn) [Compound 48, [(3R,8R)-8-[[7-(8-ethyl-3-hydroxy-1-naphthyl)-8-fluoro-4-(8-methyl-3,8-diazabicyclo[3.2.1]octan-3-yl)pyrido[4,3-d]pyrimidin-2-yl]oxymethyl]-1,2,3,5,6,7-hexahydropyrrolizin-3-yl]methyl4-[2-(2,6-dioxo-3-piperidyl)-1-oxo-isoindolin-5-yl]piperazine-1-carboxylate]

DC50: 0.25 to 1 µM
SMILES: CCc1cccc2cc(O)cc(-c3ncc4c(N5CC6CCC(C5)N6)nc(OC[C@]56CCCN5[C@@H](COC(=O)N5CCN(c7ccc8c(c7)C(=O)N(C7CCC(=O)NC7=O)C8=O)CC5)CC6)nc4c3F)c12 (stereo partly drawn) [Compound 63, [(3R,8R)-8-[[4-(3,8-diazabicyclo[3.2.1]octan-3-yl)-7-(8-ethyl-3-hydroxy-1-naphthyl)-8-fluoro-pyrido[4,3-d]pyrimidin-2-yl]oxymethyl]-1,2,3,5,6,7-hexahydropyrrolizin-3-yl]methyl4-[2-(2,6-dioxo-3-piperidyl)-1,3-dioxo-isoindolin-5-yl]piperazine-1-carboxylate]

DC50: < 5.1 µM
SMILES: C#Cc1c(F)ccc2cc(O)cc(-c3ncc4c(N5CC6CCC(C5)N6)nc(OCCN5CCC(CC6CCN(CC7CCN(c8cccc9c8C(=O)N(C8CCC(=O)NC8=O)C9=O)CC7)CC6)CC5)nc4c3F)c12 (stereo not shown) [Compound 75]

SMILES: C#Cc1c(F)ccc2cc(O)cc(-c3ncc4c(N5CC6CCC(C5)N6)nc(OCCN5CCC(CN6CCC7(CC6)CCN(c6ccc8c(c6F)CN(C6CCC(=O)NC6=O)C8=O)CC7)CC5)nc4c3F)c12 (stereo not shown) [Compound 92, 3-(5-{9-[(1-{2-[(4-{3,8-diazabicyclo[3.2.1]octan-3-yl}-7-(8-ethynyl-7-fluoro-3-hydroxynaphthalen-1-yl)-8-fluoropyrido[4,3-d]pyrimidin-2-yl)oxy]ethyl}piperidin-4-yl)methyl]-3,9-diazaspiro[5.5]undecan-3-yl}-4-fluoro-1-oxo-2,3-dihydro-1H-isoindol-2-yl)piperidine-2,6-dione]
Dmax: > 70% | DC50: < 5.1 µM

SMILES: C#Cc1c(F)ccc2cc(O)cc(-c3ncc4c(N5CC6CCC(C5)N6)nc(OCCN5CCC(CC6CCN(CC7CCN(c8cc(F)cc9c8CN(C8CCC(=O)NC8=O)C9=O)CC7)CC6)CC5)nc4c3F)c12 (stereo not shown) [Compound 130, 3-{4-[4-({4-[(1-{2-[(4-{3,8-diazabicyclo[3.2.1]octan-3-yl}-7-(8-ethynyl-7-fluoro-3-hydroxynaphthalen-1-yl)-8-fluoropyrido[4,3-d]pyrimidin-2-yl)oxy]ethyl}piperidin-4-yl)methyl]piperidin-1-yl}methyl)piperidin-1-yl]-6-fluoro-1-oxo-2,3-dihydro-1H-isoindol-2-yl}piperidine-2,6-dione]
Dmax: > 70% | DC50: < 5.1 µM

SMILES: C#Cc1c(F)ccc2cc(O)cc(-c3ncc4c(N5CC6CCC(C5)N6)nc(OCCN5CCC(CC6CCN(CC7CCN(c8ccc9c(c8)n(C(C)C)c(=O)n9C8CCC(=O)NC8=O)CC7)CC6)CC5)nc4c3F)c12 (stereo not shown) [Compound 98, 3-{5-[4-({4-[(1-{2-[(4-{3,8-diazabicyclo[3.2.1]octan-3-yl}-7-(8-ethynyl-7-fluoro-3-hydroxynaphthalen-1-yl)-8-fluoropyrido[4,3-d]pyrimidin-2-yl)oxy]ethyl}piperidin-4-yl)methyl]piperidin-1-yl}methyl)piperidin-1-yl]-2-oxo-3-(propan-2-yl)-2,3-dihydro-1H-1,3-benzodiazol-1-yl}piperidine-2,6-dione]
Dmax: > 70% | DC50: < 5.1 µM

SMILES: C#Cc1c(F)ccc2cc(O)cc(-c3ncc4c(N5CC6CCC(C5)N6)nc(OCCN5CCC(CN6CCN(CC7CCN(c8ccc9c(c8F)CN(C8CCC(=O)NC8=O)C9=O)CC7)CC6)CC5(C)C)nc4c3F)c12 (stereo not shown) [Compound 168, 3-{5-[4-({4-[(1-{2-[(4-{3,8-diazabicyclo[3.2.1]octan-3-yl}-7-(8-ethynyl-7-fluoro-3-hydroxynaphthalen-1-yl)-8-fluoropyrido[4,3-d]pyrimidin-2-yl)oxy]ethyl}-2,2-dimethylpiperidin-4-yl)methyl]piperazin-1-yl}methyl)piperidin-1-yl]-4-fluoro-1-oxo-2,3-dihydro-1H-isoindol-2-yl}piperidine-2,6-dione]
Dmax: > 70% | DC50: < 5.1 µM
